{
  "source": "patent US12121596B2",
  "about": "“Near infrared fluorescent dyes, formulations and related methods” (Washington University, priority 2019, dated 2024)",
  "key": {"[1]": {"system": "lung (A549), breast (MDA-MB-231 and 4T1), and myeloid leukemia (HL60) cell lines", "assay": "Cellular uptake in cancer cell lines, live-cell imaging", "assay_type": "cell-based", "conditions": "A549, MDA-MB-231, 4T1, HL60", "protocol": "In general, cultured cancer cells were grown and incubated with the indicated amount of probe in Lab-Tek 8-chambered slides for the indicated time durations. Cells were washed with PBS at selected time points and underwent conventional slide preparation, ICC if indicated, and viewing under epifluorescence or confocal. For live-cell imaging of LS301, internalization at 37° C. in human dermal fibroblasts (Coriell Cell Technologies) and tumor cells including 4T1luc, MDA-MB-231, 5TGM, A549, and HL60 (ATCC) cells were cultured in appropriate media supplemented with 10% […] and penicillin/streptomycin and incubated at 37° C. in 5% CO2 incubator. The cells were grown on Lab-Tek 8-chamber slides (Nunc Inc. Rochester, NY) in the culture medium overnight before the experiment. The compounds were dissolved in 20% DMSO in […] PBS (pH 7.4) (Sigma, St. Louis, MO) for stocking solution and mixed with culture medium to reach the final concentration. Cells were incubated with 1 μM compounds in chamber slides at different time points at 37° C. After LS301 treatment, the culture media was removed and followed by adding culture media containing SYTO 13 nuclear dye from (Thermo Fisher Scientific, Waltham, MA) for 45 minutes at 37° C. For assessing cellular colocalization of LS301 with lipid rafts, the Vybrant AlexaFluor 488 Lipid Raft Labeling Kit (Thermo Fisher Scientific, Waltham, MA, USA) was used per the manufacturer's instructions. […]. LS301 and AlexaFluor 488 fluorescence were imaged using the cypate filter set (Ex/Em 750-800 nm/818-873 nm) and fluorescein isothiocyanate (FITC) filter set (Ex/Em 460-500/510-560 nm), respectively."}, "[2]": {"assay": "Microscale thermophoresis (MST), calcium binding", "conditions": "read-out: apparent dissociation constant (Kd), calcium", "source_text": "Microscale thermophoresis (MST) studies biomolecular interactions in an aqueous environment without immobilization. MST exploits the directed movement of molecules along a microscopic temperature gradient. The movement rate and direction of movement depend on the species' size, charge, and solvation shell under study. Changes in this environment can change the thermophoretic movement of the species. MST can distinguish very small changes that occur, for example, when a small fluorescent molecule binds to the surface of a protein.\nMST was performed using the Monolith NT.115 (Nanotemper Technologies, Munich, Germany). The appropriate agent(s) and LS301 stock samples were denatured in MST-1 buffer (50 mM Tris-HCl, pH 7.4; 150 mM NaCl; 10 mM MgCl2; 2% DMSO; 0.1% Tween-20; 4% SDS, 4 mM dithiothreitol (DTT)) at 97° C. for 10 min. Fluorescence was assessed in MST-2 buffer (50 mM Tris-HCl, pH 7.4; 150 mM NaCl; 10 mM MgCl2). The protein was prepared in MST-2 buffer, and 20 μL serial dilutions were made with protein concentration ranging from 3.05 pM to 50 nM (pANXA2) or 3.81 pM to 62.5 nM (ANXA2). All samples were loaded into NT.115 standard capillaries. […] The apparent Kd values were calculated from fragment concentration-dependent changes in normalized fluorescence (Fraction Bound) of LS301 after 5 seconds of thermophoresis based on mass action law using the MO Affinity Analysis v2.3 software."}, "[3]": {"system": "breast cancer patient-derived xenograft", "assay": "In vivo NIR imaging of tumor retention", "parameters": "species or system mice", "protocol": "To establish the various tumor models, nude, Balb/c, or C57BL6 mice were injected with 10^5-10^7 tumor cells subcutaneously on unilateral or bilateral flanks. In some cases, spontaneous tumor models were used. Animals injected subcutaneously with saline served as sham tumor controls. For near-infrared imaging, 100 μL volumes of 60 μM LS301 or cypate in PBS were injected intravenously by lateral tail vein, and animals were imaged using a Pearl Small Animal Imager (LI-COR Biotechnology, Lincoln, NE, USA) at the indicated time points. In some experiments, probes were formulated in 1% albumin in PBS. Animals were shaved using commercially available hair removal equipment and products before imaging. For experiments involving further tissue analysis, animals were anesthetized with isoflurane and euthanized by cervical dislocation under anesthesia. Organs were harvested by surgical dissection. For quantitative organ biodistribution studies, individual regions of interest were drawn around each organ of interest, and fluorescence was quantified using the Pearl Small Animal Imager software."}, "tumor": {"system": "tumor", "assay": "NIR contrast evaluation of DMSO and ethanol-based formulations", "assay_type": "in vivo", "source_text": "No difference in histology between the various solvents was seen."}, "[4]": {"system": "lysates of insulin-stimulated, pANXA2-expressing 4T1 cells", "assay": "Binding to lysates of insulin-stimulated 4T1 cells", "parameters": "species or system murine", "conditions": "read-out: apparent Kd, 4T1 cell lysates", "protocol": "MST was performed using the Monolith NT.115 (Nanotemper Technologies, Munich, Germany). The appropriate agent(s) and LS301 stock samples were denatured in MST-1 buffer (50 mM Tris-HCl, pH 7.4; 150 mM NaCl; 10 mM MgCl2; 2% DMSO; 0.1% Tween-20; 4% SDS, 4 mM dithiothreitol (DTT)) at 97° C. for 10 min. Fluorescence was assessed in MST-2 buffer (50 mM Tris-HCl, pH 7.4; 150 mM NaCl; 10 mM MgCl2). The protein was prepared in MST-2 buffer, and 20 μL serial dilutions were made with protein concentration ranging from 3.05 pM to 50 nM (pANXA2) or 3.81 pM to 62.5 nM (ANXA2). All samples were loaded into NT.115 standard capillaries. The analysis was performed at 37° C., 30% LED power, 60% MST power, and a constant LS301 concentration of 20 nM. The apparent Kd values were calculated from fragment concentration-dependent changes in normalized fluorescence (Fraction Bound) of LS301 after 5 seconds of thermophoresis based on mass action law using the MO Affinity Analysis v2.3 software.\nFor Western blot analysis of insulin/PP2-induced change in cellular pANXA2 levels, 4T1 cells were treated with insulin or PP2 as above, lysed, and subjected to SDS-PAGE analysis. […]"}},
  "note": "Positions of bridges follow the written chain, without caps; N, C: chain ends. Non-standard residues stand in square brackets, D forms with d. Residues, ends and D or L forms follow the SMILES beside them. *: point of attachment. X1 = CC1(C)C(/C=C/C=C/C=C/C=C2/N(CCC(=O)*)c3ccc4ccccc4c3C2(C)C)=[N+](CCC(=O)[O-])c2ccc3ccccc3c21",
  "data": [
    {"smiles": "CC1(C)C(/C=C/C=C/C=C/C=C2/N(CCC(=O)N[C@@H]3CSSC[C@@H](C(=O)N[C@@H](CCCCN)C(=O)O)NC(=O)[C@@H]4CCCN4C(=O)[C@H](CO)NC(=O)[C@H](CC(=O)O)NC(=O)[C@H](CCCNC(=N)N)NC(=O)CNC3=O)c3ccc4ccccc4c3C2(C)C)=[N+](CCC(=O)[O-])c2ccc3ccccc3c21", "note": "[LS301, cypate-cyclic (DCys-Gly-Arg-Asp-Ser-Pro-Cys)-Lys-OH] (X1-[dC]GRDSPCK-OH; disulfide 1-7)", "values": [
      {"measurement": "time over which maximum cellular uptake is maintained", "setting": "[1]", "value": "over 24 hours"},
      {"measurement": "time to maximum concentration of cellular uptake", "setting": "[1]", "value": 12, "unit": "h"},
      {"measurement": "Kd", "setting": "[2]", "value": "5.67 ± 2.4", "unit": "nM"},
      {"measurement": "time remaining in the tumor lesion", "setting": "[3]; breast cancer patient-derived xenograft", "value": "over 96 hours"},
      {"measurement": "tumor coverage", "setting": "[3]; small tumors (<5 mm)", "value": "about 100%"},
      {"measurement": "tumor uptake compared to renal or hepatic clearance", "setting": "tumor; 20% PEG400 solutions", "value": "increased tumor uptake"},
      {"measurement": "NIR contrast", "setting": "tumor; in 20% PEG400", "value": "significantly increased contrast"},
      {"measurement": "clearance mechanism", "setting": "tumor; in vivo", "value": "cleared via renal and hepatic mechanisms"},
      {"measurement": "Kd", "setting": "[4]", "value": "0.017 ± 0.004", "unit": "nM"}
    ]}
  ]
}
